Data set [1] in a line: Volatility of compounds measured by thermogravimetric analysis (TGA). The data set is classed as physicochemical.
Data set [2] deals with Abutilon theophrasti (ABUTH), velvetleaf. Briefly: Postemergence herbicide evaluation, growth of Abutilon theophrasti (ABUTH). Format: in vivo. The following applies: Abutilon theophrasti, post-emergence, read-out: AVE. ABUTH.
In data set [3] the test system is weeds ABUTH, AMATA, AMBEL, CHEAL, ERICA. Description: Postemergence herbicide evaluation, overall average % weed control across ABUTH, AMATA, AMBEL, CHEAL and ERICA. Format: in vivo. The following applies: post-emergence, read-out: Overall Ave % Weed Control.
In data set [4] the test system is Chenopodium album (CHEAL), common lambsquarters. Briefly: Postemergence herbicide evaluation, growth of Chenopodium album (CHEAL). The following applies: Chenopodium album, post-emergence, read-out: Ave. CHEAL. The data set is classed as in vivo.
Data set [5] concerns Amaranthus rudis (AMATA), tall water hemp. Description: Postemergence herbicide evaluation, growth of Amaranthus rudis (AMATA). The data set is classed as in vivo. The following applies: Amaranthus tuberculatus, post-emergence, read-out: Ave. AMATA.
Data set [6] concerns Ambrosia artemisiifolia (AMBEL), common ragweed. Briefly: Postemergence herbicide evaluation, growth of Ambrosia artemisiifolia (AMBEL). Format: in vivo. The settings on record: Ambrosia artemisiifolia, post-emergence, read-out: AVE. AMBEL.
For data set [7], the system named is glyphosate resistant Conyza canadensis (L.) (ERICA), horseweed. Description: Postemergence herbicide evaluation, growth of Conyza canadensis (ERICA). Format: in vivo. The following applies: Erigeron canadensis, post-emergence, percent reduction in plant size vs untreated control, read-out: Ave. ERICA; for pest or weed control at 280 g/ha: 280 g ae/ha; for pest or weed control at 560 g/ha: 560 g ae/ha.

The subject of data set [8] is Common Lambsquarters (CHEAL). Description: Greenhouse post-emergence mixture trials, percent visual control. The data set is classed as in vivo. The settings on record: CHEAL, 21 DAA.
The subject of a further data set is Velvetleaf (ABUTH). The description is as above. Format: in vivo. The following applies: Abutilon theophrasti, post-emergence, 504 h, ABUTH, 21 DAA; for pest or weed control at 150 g/ha: Mesotrione 150 g ai or ae/ha alone.
Where [9] appears, read: 168 h, 280 g ae/ha, 7 DAA, percent reduction in plant size vs untreated control.
[10] abbreviates: 168 h, 560 g ae/ha, 7 DAA, percent reduction in plant size vs untreated control.
Setting [11] is: 336 h, 280 g ae/ha, 14 DAA, percent reduction in plant size vs untreated control.
Where [12] appears, read: 336 h, 560 g ae/ha, 14 DAA, percent reduction in plant size vs untreated control.
The mark [13] stands for this setting: 504 h, 280 g ae/ha, 21 DAA, percent reduction in plant size vs untreated control.
The mark [14] stands for this setting: 504 h, 560 g ae/ha, 21 DAA, percent reduction in plant size vs untreated control.

Read-outs that look alike come from different tables or passages of the source.

`O=C(COc1ccc(Cl)cc1Cl)ONC(=O)c1cccnc1` [Compound A19]: in data set [1], the “TGA Data (rate of weight loss, volatility)” value amounted to 0.348 µg/min.
On to `O=C(COc1ccc(Cl)cc1Cl)OCCOCCOCCOCCOC(=O)COc1ccc(Cl)cc1Cl` [Compound B14], for which the pest or weed control at 280 g/ha in data set [2] (168 h) was found to be 60%; in [2] (336 h), 77.5%; in data set [2] (504 h), 92%; in [3] (168 h), 75%; in [3] (336 h), 87.3%; in data set [3] (504 h), 90.2%. Further, the pest or weed control at 280 g/ha in [4] (168 h) is 75%; in data set [4] (336 h), 94%; in data set [4] (504 h), 90%; in data set [5] (168 h), 72.5%; in data set [5] (336 h) it was 90%; in data set [5] (504 h), 70%. Further, the values for the pest or weed control at 280 g/ha in [6] (168 h), in data set [6] (336 h) and in data set [6] (504 h) were 82.5%, 75% and 100%, respectively. For the same compound, the pest or weed control at 560 g/ha in [2] (168 h) was found to be 70%; in [2] (336 h), 87.5%; in data set [2] (504 h) it was 97.5%; in data set [3] (168 h) it was 82.5%; in [3] (336 h), 94.2%; in [3] (504 h), 97.6%. The pest or weed control at 560 g/ha in data set [4] (168 h) stood at 77.5%; in [4] (336 h) it was 98%; in data set [4] (504 h), 99%; in data set [5] (168 h), 90%; in data set [5] (336 h), 96%; in data set [5] (504 h), 92.5%. Further, the results for the pest or weed control at 560 g/ha in data set [6] (168 h), in data set [6] (336 h) and in [6] (504 h) were 87.5%, 89.5% and 100%, respectively.
As to `Cc1nc2ccccc2n1C(=O)COc1ccc(Cl)cc1Cl` [Compound D12], the pest or weed control at 280 g/ha in [2] (setting [9]) was found to be 47.5%; in data set [2] (setting [11]), 67.5%; in [2] (setting [13]), 67.5%; in data set [3] (168 h, 280 g ae/ha, 7 DAA, average over five weeds) it was 70%; in data set [3] (336 h, 280 g ae/ha, 14 DAA, average over five weeds) it was 83.9%; in [3] (504 h, 280 g ae/ha, 21 DAA, average over five weeds), 84.5%. Also, the pest or weed control at 280 g/ha in data set [4] (setting [9]) is 80%; in [4] (setting [11]), 98.5%; in [4] (setting [13]), 90%; in data set [5] (setting [9]) it was 62.5%; in [5] (setting [11]), 87.5%; in data set [5] (setting [13]), 65%. Further, the pest or weed control at 280 g/ha came out at 75% in data set [6] (setting [9]); 67.5% in [6] (setting [11]); 100% in [6] (setting [13]); 85% in [7] (168 h, 7 DAA); 98.5% in [7] (336 h, 14 DAA); 100% in [7] (504 h, 21 DAA). In addition, the pest or weed control at 560 g/ha was found to be 67.5% in [2] (setting [10]); 85% in [2] (setting [12]); 96.5% in data set [2] (setting [14]); 75.5% in data set [3] (168 h, 560 g ae/ha, 7 DAA, average over five weeds); 90.6% in data set [3] (336 h, 560 g ae/ha, 14 DAA, average over five weeds); 94% in [3] (504 h, 560 g ae/ha, 21 DAA, average over five weeds). Further, the pest or weed control at 560 g/ha in [4] (setting [10]) was 75%; in data set [4] (setting [12]), 98.5%; in data set [4] (setting [14]), 96%; in data set [5] (setting [10]), 77.5%; in data set [5] (setting [12]) it was 92.5%; in data set [5] (setting [14]) it was 77.5%. The pest or weed control at 560 g/ha in [6] (setting [10]) was found to be 72.5%; in data set [6] (setting [12]) it was 77.5%; in data set [6] (setting [14]), 100%; in data set [7] (168 h, 7 DAA), 85%; in [7] (336 h, 14 DAA), 99.5%; in data set [7] (504 h, 21 DAA), 100%.
In the case of `CS(=O)(=O)c1ccc(C(=O)C2C(=O)CCCC2=O)c([N+](=O)[O-])c1` [Mesotrione, 2-[4-(methylsulfonyl)-2-nitrobenzoyl]-1,3-cyclohexanedione, reference compound], the pest or weed control at 75 g/ha in data set [8] (Chenopodium album, post-emergence, 504 h, Trial 2 Trt 25: B2 0 g ae/ha, Mesotrione 75 g ai or ae/ha alone) was 100%; with Velvetleaf (ABUTH) (Trial 2 Trt 25, B2 0 g ae/ha, Mesotrione 75 g ai or ae/ha alone), 100%. For the same compound, the pest or weed control at 150 g/ha in [8] (Chenopodium album, post-emergence, 504 h, Trial 2 Trt 28: B2 0 g ae/ha, Mesotrione 150 g ai or ae/ha alone) stood at 100%; in the data set on Velvetleaf (ABUTH) (Trial 2 Trt 28, B2 0 g ae/ha) it was 100%; in the data set on Velvetleaf (ABUTH) (Trial Bridge 1 Trt 10, D10 0 g ae/ha), 100%. The “% Control” value in data set [8] (Trial Bridge 1, mixing partner alone (D10 at 0 g ae/ha), Mesotrione 150 g ai or ae/ha) was 100%.

Source of the values: patent US20260042731A1, “(2,4-DICHLOROPHENOXY)ACETIC ACID ANALOGS” (CORTEVA AGRISCIENCE LLC, priority 2022, published 2026).
